Holding throughout (experiment): microscale thermophoresis
Assay [1] concerns the target T1, OmpA-like peptidoglycan-binding domain of R. rubrum PapS (Rhodospirillum rubrum, UniProt Q2RP23).
T1 construct: gene Rru_A3328; isolated C-terminal OmpA-like domain, residues 156-273; His6-SUMO tag cut by Ulp1; E. coli Rosetta(DE3)pLysS; RED-NHS labelled
An excerpt: microscale thermophoresis on OmpA-like peptidoglycan-binding domain of R. rubrum PapS | isolated OmpA-like domain of PapS bound mDAP in vitro, albeit with lower affinity

The target in assay [2] is T2, A. baumannii OmpA (OmpA-like peptidoglycan-binding domain) (Acinetobacter baumannii, UniProt Q6RYW5).
T2 construct: gene omp38; isolated periplasmic OmpA-like domain, residues 221-339; His6-SUMO tag cut by Ulp1; E. coli Rosetta(DE3)pLysS; RED-NHS labelled

The target of assay [3] is T3, OmpA-like peptidoglycan-binding domain of R. rubrum PapS (Rhodospirillum rubrum, UniProt Q2RP23, R223A).
T3 construct: gene Rru_A3328; isolated C-terminal OmpA-like domain, residues 156-273; His6-SUMO tag cut by Ulp1; E. coli Rosetta(DE3)pLysS; RED-NHS labelled
The settings on record: MST buffer 25 mM HEPES/NaOH pH 8, 50 mM NaCl, 0.1% Tween; 25 °C; 100 nM RED-NHS labelled protein; mDAP 1.5 µM to 50 mM.

T3 sequence (Q2RP23 entry or part of it R223A): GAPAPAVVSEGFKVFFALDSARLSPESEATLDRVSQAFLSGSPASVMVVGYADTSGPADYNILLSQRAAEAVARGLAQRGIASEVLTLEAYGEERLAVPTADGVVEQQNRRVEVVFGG
T2 sequence (Q6RYW5 221-339): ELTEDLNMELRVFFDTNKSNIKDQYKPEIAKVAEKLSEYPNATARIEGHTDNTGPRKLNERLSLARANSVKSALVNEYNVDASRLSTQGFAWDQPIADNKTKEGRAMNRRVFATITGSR
T1 sequence (Q2RP23 entry or part of it): as the sequence (Q2RP23 entry or part of it R223A) above, with A68R counted along it

Consider `N[C@H](CCC[C@H](N)C(=O)O)C(=O)O` [mDAP], for which the Kd stood at 2.5 mM in assay [1] and 9 µM in assay [2]. Also, the mDAP binding result in assay [3] is listed as “In vitro analysis verified that the mutant domain no longer showed mDAP-binding activity”.

For the origin of these results see PMC11369160, “An outer membrane porin-lipoprotein complex modulates elongasome movement to establish cell curvature in Rhodospirillum rubrum” (Nature Communications, 2024).
